Assay results as given in the NIST ThermoML archive (doi:10.1021/je900387e).

Assay: xn = mol fraction of the nth substance listed
Conditions: Liquid, Pycnometric method

CCCCCl [1-chlorobutane] + O=C=O
Conditions	mass density [kg/m3]
327.6 K, 14940 kPa, x1 = 0.0981	822
327.6 K, 15140 kPa, x1 = 0.0981	825
332.4 K, 9070 kPa, x1 = 0.1488	732
332.4 K, 9260 kPa, x1 = 0.1488	737
332.4 K, 9420 kPa, x1 = 0.1488	740
332.4 K, 9430 kPa, x1 = 0.0981	649
332.4 K, 9510 kPa, x1 = 0.0981	654
332.4 K, 9560 kPa, x1 = 0.0981	657
332.4 K, 9590 kPa, x1 = 0.1488	744
332.4 K, 9660 kPa, x1 = 0.0981	663
332.4 K, 9750 kPa, x1 = 0.0483	421
332.4 K, 9760 kPa, x1 = 0.0981	669
332.4 K, 9760 kPa, x1 = 0.1488	748
332.4 K, 9800 kPa, x1 = 0.0483	426
332.4 K, 9860 kPa, x1 = 0.0483	433
332.4 K, 9870 kPa, x1 = 0.0981	675
332.4 K, 9910 kPa, x1 = 0.0483	441
332.4 K, 9940 kPa, x1 = 0.1488	751
332.4 K, 9970 kPa, x1 = 0.0483	449
332.4 K, 10000 kPa, x1 = 0.0981	682
332.4 K, 10050 kPa, x1 = 0.0483	458
332.4 K, 10130 kPa, x1 = 0.0981	687
332.4 K, 10130 kPa, x1 = 0.1488	755
332.4 K, 10150 kPa, x1 = 0.0483	469
332.4 K, 10200 kPa, x1 = 0.0483	478
332.4 K, 10280 kPa, x1 = 0.0483	487
332.4 K, 10290 kPa, x1 = 0.0981	694
332.4 K, 10340 kPa, x1 = 0.1488	758
332.4 K, 10390 kPa, x1 = 0.0483	497
332.4 K, 10470 kPa, x1 = 0.0981	700
332.4 K, 10490 kPa, x1 = 0.0483	507
332.4 K, 10570 kPa, x1 = 0.1488	762
332.4 K, 10590 kPa, x1 = 0.0483	518
332.4 K, 10650 kPa, x1 = 0.0981	707
332.4 K, 10700 kPa, x1 = 0.0483	529
332.4 K, 10800 kPa, x1 = 0.1488	766
332.4 K, 10830 kPa, x1 = 0.0483	541
332.4 K, 10850 kPa, x1 = 0.0981	713
332.4 K, 10970 kPa, x1 = 0.0483	554
332.4 K, 11030 kPa, x1 = 0.1488	770
332.4 K, 11080 kPa, x1 = 0.0981	720
332.4 K, 11140 kPa, x1 = 0.0483	569
332.4 K, 11280 kPa, x1 = 0.1488	774
332.4 K, 11330 kPa, x1 = 0.0981	727
332.4 K, 11350 kPa, x1 = 0.0483	584
332.4 K, 11560 kPa, x1 = 0.0483	598
332.4 K, 11570 kPa, x1 = 0.1488	778
332.4 K, 11590 kPa, x1 = 0.0981	734
332.4 K, 11830 kPa, x1 = 0.0483	613
332.4 K, 11840 kPa, x1 = 0.1488	782
332.4 K, 11980 kPa, x1 = 0.0981	743
332.4 K, 12120 kPa, x1 = 0.0483	629
332.4 K, 12300 kPa, x1 = 0.0483	637
332.4 K, 12330 kPa, x1 = 0.1488	788
332.4 K, 12430 kPa, x1 = 0.0981	753
332.4 K, 12530 kPa, x1 = 0.0483	648
332.4 K, 12610 kPa, x1 = 0.0483	652
332.4 K, 12820 kPa, x1 = 0.1488	794
332.4 K, 12960 kPa, x1 = 0.0981	763
332.4 K, 13360 kPa, x1 = 0.1488	800
332.4 K, 13540 kPa, x1 = 0.0981	774
332.4 K, 13940 kPa, x1 = 0.1488	806
332.4 K, 14190 kPa, x1 = 0.0981	785
332.4 K, 14570 kPa, x1 = 0.1488	813
332.4 K, 14840 kPa, x1 = 0.1488	816
332.4 K, 14900 kPa, x1 = 0.0981	795
332.4 K, 15110 kPa, x1 = 0.0981	798
333.3 K, 9630 kPa, x1 = 0.0744	545
333.3 K, 9660 kPa, x1 = 0.0744	551
333.3 K, 9690 kPa, x1 = 0.0744	556
333.3 K, 9740 kPa, x1 = 0.0744	563
333.3 K, 9810 kPa, x1 = 0.0744	571
333.3 K, 9900 kPa, x1 = 0.0744	578
333.3 K, 9980 kPa, x1 = 0.0744	586
333.3 K, 10100 kPa, x1 = 0.0744	597
333.3 K, 10250 kPa, x1 = 0.0744	608
333.3 K, 10410 kPa, x1 = 0.0744	620
333.3 K, 10600 kPa, x1 = 0.0744	632
333.3 K, 10840 kPa, x1 = 0.0744	645
333.3 K, 11110 kPa, x1 = 0.0744	658
333.3 K, 11420 kPa, x1 = 0.0744	672
333.3 K, 11800 kPa, x1 = 0.0744	686
333.3 K, 12260 kPa, x1 = 0.0744	701
333.3 K, 12810 kPa, x1 = 0.0744	717
333.3 K, 13470 kPa, x1 = 0.0744	733
333.3 K, 14290 kPa, x1 = 0.0744	750
333.3 K, 14750 kPa, x1 = 0.0744	759
333.3 K, 15240 kPa, x1 = 0.0744	768
337.4 K, 9620 kPa, x1 = 0.1488	705
337.4 K, 9770 kPa, x1 = 0.1488	709
337.4 K, 9890 kPa, x1 = 0.0981	605
337.4 K, 9930 kPa, x1 = 0.0744	509
337.4 K, 9950 kPa, x1 = 0.1488	714
337.4 K, 9960 kPa, x1 = 0.0483	378
337.4 K, 9960 kPa, x1 = 0.0744	513
337.4 K, 9980 kPa, x1 = 0.0981	612
337.4 K, 10010 kPa, x1 = 0.0744	520
337.4 K, 10040 kPa, x1 = 0.0483	384
337.4 K, 10070 kPa, x1 = 0.0981	619
337.4 K, 10080 kPa, x1 = 0.0744	527
337.4 K, 10090 kPa, x1 = 0.0483	390
337.4 K, 10150 kPa, x1 = 0.0981	625
337.4 K, 10150 kPa, x1 = 0.1488	719
337.4 K, 10160 kPa, x1 = 0.0483	396
337.4 K, 10180 kPa, x1 = 0.0744	536
337.4 K, 10230 kPa, x1 = 0.0483	402
337.4 K, 10250 kPa, x1 = 0.0981	632
337.4 K, 10280 kPa, x1 = 0.0744	547
337.4 K, 10290 kPa, x1 = 0.0483	409
337.4 K, 10360 kPa, x1 = 0.0483	415
337.4 K, 10360 kPa, x1 = 0.0981	639
337.4 K, 10360 kPa, x1 = 0.1488	724
337.4 K, 10420 kPa, x1 = 0.0483	422
337.4 K, 10420 kPa, x1 = 0.0744	560
337.4 K, 10490 kPa, x1 = 0.0483	429
337.4 K, 10500 kPa, x1 = 0.0981	647
337.4 K, 10550 kPa, x1 = 0.0744	571
337.4 K, 10570 kPa, x1 = 0.0483	436
337.4 K, 10580 kPa, x1 = 0.1488	729
337.4 K, 10630 kPa, x1 = 0.0981	654
337.4 K, 10650 kPa, x1 = 0.0483	444
337.4 K, 10700 kPa, x1 = 0.0744	583
337.4 K, 10730 kPa, x1 = 0.0483	452
337.4 K, 10790 kPa, x1 = 0.0981	662
337.4 K, 10820 kPa, x1 = 0.0483	459
337.4 K, 10840 kPa, x1 = 0.1488	735
337.4 K, 10870 kPa, x1 = 0.0744	595
337.4 K, 10900 kPa, x1 = 0.0483	468
337.4 K, 10960 kPa, x1 = 0.0981	670
337.4 K, 10990 kPa, x1 = 0.0483	477
337.4 K, 11060 kPa, x1 = 0.0744	607
337.4 K, 11090 kPa, x1 = 0.0483	485
337.4 K, 11090 kPa, x1 = 0.1488	740
337.4 K, 11170 kPa, x1 = 0.0981	678
337.4 K, 11190 kPa, x1 = 0.0483	495
337.4 K, 11270 kPa, x1 = 0.0483	501
337.4 K, 11270 kPa, x1 = 0.0744	620
337.4 K, 11340 kPa, x1 = 0.0483	508
337.4 K, 11380 kPa, x1 = 0.0981	686
337.4 K, 11380 kPa, x1 = 0.1488	746
337.4 K, 11440 kPa, x1 = 0.0483	516
337.4 K, 11510 kPa, x1 = 0.0483	521
337.4 K, 11520 kPa, x1 = 0.0744	634
337.4 K, 11640 kPa, x1 = 0.0981	694
337.4 K, 11680 kPa, x1 = 0.1488	751
337.4 K, 11830 kPa, x1 = 0.0744	648
337.4 K, 11930 kPa, x1 = 0.0981	703
337.4 K, 12030 kPa, x1 = 0.1488	757
337.4 K, 12200 kPa, x1 = 0.0744	663
337.4 K, 12240 kPa, x1 = 0.0981	711
337.4 K, 12380 kPa, x1 = 0.1488	762
337.4 K, 12580 kPa, x1 = 0.0981	721
337.4 K, 12630 kPa, x1 = 0.0744	679
337.4 K, 12750 kPa, x1 = 0.1488	768
337.4 K, 12950 kPa, x1 = 0.0981	729
337.4 K, 13160 kPa, x1 = 0.0744	695
337.4 K, 13180 kPa, x1 = 0.1488	774
337.4 K, 13380 kPa, x1 = 0.0981	739
337.4 K, 13450 kPa, x1 = 0.1488	778
337.4 K, 13780 kPa, x1 = 0.1488	781
337.4 K, 13800 kPa, x1 = 0.0744	713
337.4 K, 14110 kPa, x1 = 0.0981	753
337.4 K, 14120 kPa, x1 = 0.1488	786
337.4 K, 14480 kPa, x1 = 0.1488	790
337.4 K, 14580 kPa, x1 = 0.0744	731
337.4 K, 14830 kPa, x1 = 0.1488	794
337.4 K, 14970 kPa, x1 = 0.0981	768
337.4 K, 15140 kPa, x1 = 0.0744	742
337.4 K, 15300 kPa, x1 = 0.0981	774
